Assay results published in US20240374631A1, “A COMPOSITION FOR IMPROVING GUT MICROBIOTA, BEHAVIOURAL PATTERN, ALPHA-SYNUCLEIN LEVELS, SLEEP PATTERN AND/OR SERUM MELATONIN” (GN Corporation Co Ltd, priority 2021, published 2024).

System: gut microbiota
Assay: Gut microbiome analysis (16S rRNA sequencing of fecal samples) in STAM model of NASH
Assay type: in vivo, C57BL/6J mice
Conditions: post-intervention
Source text: The study is reported in accordance with Animal Research: Reporting of In Vivo Experiments (ARRIVE) guidelines. C57BL/6J mice were obtained from Japan SLC, Inc. (Japan). All animals used in this study were cared for under the following guidelines: Act on Welfare and Management of Animals (Ministry of the Environment, Japan, Act No. 105 of Oct. 1, 1973), standards relating to the care and management of laboratory animals and relief of pain (Notice No. 88 of the Ministry of the Environment, Japan, Apr. 28, 2006) and the guidelines for proper conduct of animal experiments (Science Council of Japan, Jun. 1, 2006). Protocol approvals were obtained from SMC Laboratories, Japan's IACUC (Study reference no: […] Mice were maintained in a specific pathogen-free (SPF) facility under controlled conditions of temperature (23±3° C.), humidity (50±20%), lighting (12-hour artificial light and dark cycles; light from 8:00 to 20:00) and air exchange. The STAM model of NASH was induced as previously described [D10]. Mice were given a single subcutaneous injection of 200 μg streptozotocin (STZ, Sigma-Aldrich, USA) solution 2 days after birth and fed with a high-fat diet (HFD, 57 kcal % fat, Cat #HFD32, CLEA Japan, Inc., Japan) from 4-9 weeks of age. All mice develop liver steatosis and diabetes and at […] mice had established steatohepatitis, histologically. Studygroups: There were five study groups, described below. Eight mice were included in each study group. Eight NASH mice were orally administered vehicle supplemented with AFO-202 Beta Glucan at a dose of 1 mg/kg in a volume of 5 mL/kg once daily from 6 to 9 weeks of age. Eight NASH mice were orally administered vehicle supplemented with Telmisartan at a dose of 10 mg/kg once daily from 6 to 9 weeks of age. Frequency: Fecal samples were collected at the 6 weeks of age (before administration) and 9 weeks of age (before sacrifice). Procedure: At 6 weeks of age, fecal samples were collected from each mouse by clean catch method. […] A sterile petri dish was placed on the bench. Gently massage the abdomen, position the bottom of mouse over a fresh petri dish, and collect 1-2 fecal pellets. At sacrifice, fecal samples were aseptically collected from cecum. The tubes with feces were placed on ice immediately. These tubes were snap frozen in liquid nitrogen and stored at -80° C. for shipping. In this analysis, the 16S rRNA sequence data acquired by the next-generation sequencer from the fecal […] was used to perform community analysis using the QIIME2 program for microbial community analysis. The raw read data in FASTQ format output from the next-generation sequencer was trimmed to remove adapter sequences and low QV regions that may be included in the data. Cutadapt was used to remove adapter sequences from DNA sequencing reads. Trimmomatic was used as read trimming tool for Illumina NGS data. The adapter sequence was trimmed using the adapter trimming program “cutadapt” if the Trimming of the region at the end of the read sequence overlapped the corresponding sequence by at least one base (mismatch tolerance: 20%). When reads containing N were present in at least one of Read1 and Read2, both Read1 and Read2 were removed. Trimming of low QV regions was performed on the read data after processing using the QV trimming program “Trimmomatic” under the following conditions. The window of 20 bases is slid from the 5' side, and the area where the average QV is less than 20 is trimmed. After trimming, only the reads with more than 50 bases remaining in both Read1 and Read2 were taken as output. The microbial community analysis based on 16S rRNA sequence was performed on the sequence data trimmed in the previous section using the microbial community analysis program “QIIME2”. The annotation program “sklearn” included in QIIME2 is used to annotate the ASV (OTU) sequences. […]

CCCc1nc2c(C)cc(-c3nc4ccccc4n3C)cc2n1Cc1ccc(-c2ccccc2C(=O)O)cc1 [Telmisartan]
8: Abundance: Lachnospiraceae, Dorea, — (line r307)
40: Abundance: —, —, — (line r347)
13: Abundance: Lachnospiraceae, —, — (line r309) | Abundance: Family S24-7, Genus —, Species — (table row r396)
30: Abundance: Ruminococcaceae, Oscillospira, — (line r301)
12: Abundance: Lachnospiraceae, —, — (line r362) | Abundance: Ruminococcaceae, Oscillospira, — (line r374)
14: Abundance: Lachnospiraceae, —, — (line r321)
0: Abundance: S24-7, —, — (line r298) | Abundance: S24-7, —, — (line r302) | Abundance: Bacteroidaceae, Bacteroides, acidifaciens (line r305) | Abundance: Lachnospiraceae, —, — (line r310) | Abundance: Lachnospiraceae, Other, Other (line r312) | Abundance: —, —, — (line r313) | Abundance: Ruminococcaceae, Oscillospira, — (line r315) | Abundance: Erysipelotrichaceae, —, — (line r317) | Abundance: S24-7, —, — (line r318) | Abundance: Ruminococcaceae, Oscillospira, — (line r320) | Abundance: Other, Other, Other (line r322) | Abundance: F16, —, — (line r323) | Abundance: Lachnospiraceae, Other, Other (line r325) | Abundance: Ruminococcaceae, Oscillospira, — (line r326) | Abundance: —, —, — (line r327) | Abundance: Ruminococcaceae, Other, Other (line r328) | Abundance: —, —, — (line r329) | Abundance: Lachnospiraceae, Other, Other (line r330) | Abundance: Other, Other, Other (line r331) | Abundance: Ruminococcaceae, Ruminococcus, — (line r333) | Abundance: Erysipelotrichaceae, Coprabacillus, — (line r334) | Abundance: Other, Other, Other (line r335) | Abundance: Ruminococcaceae, Oscillospira, — (line r337) | Abundance: —, —, — (line r338) | Abundance: Lachnospiraceae, —, — (line r339) | Abundance: Lachnospiraceae, Coprococcus, — (line r341) | Abundance: —, —, — (line r343) | Abundance: —, —, — (line r346) | Abundance: —, —, — (line r348) | Abundance: Lachnospiraceae, —, — (line r349) | Abundance: —, —, — (line r350) | Abundance: Erysipelotrichaceae, —, — (line r352) | Abundance: Streptococcaceae, Streptococcus, minor (line r353) | Abundance: Ruminococcaceae, Oscillospira, — (line r354) | Abundance: —, —, — (line r355) | Abundance: Lachnospiraceae, Other, Other (line r356) | Abundance: Other, Other, Other (line r357) | Abundance: —, —, — (line r358) | Abundance: —, —, — (line r359) | Abundance: Streptococcaceae, Streptococcus, — (line r363) | Abundance: S24-7, —, — (line r365) | Abundance: [Mogibacteriaceae], —, — (line r368) | Abundance: Enterobacteriaceae, Enterobacter, Other (line r369) | Abundance: Ruminococcaceae, Oscillospira, — (line r373) | Abundance: Other, Other, Other (line r375) | Abundance: Lachnospiraceae, Coprococcus, — (line r377) | Abundance: Other, Other, Other (line r378) | Abundance: Family Lachnospiraceae, Genus Other, Species Other (table row r380) | Abundance: Family Ruminococcaceae, Genus Oscillospira, Species — (table row r381) | Abundance: Family S24-7, Genus —, Species — (table row r382) | Abundance: Family Ruminococcaceae, Genus Ruminococcus, Species — (table row r383) | Abundance: Family Ruminococcaceae, Genus Oscillospira, Species — (table row r384) | Abundance: Family Ruminococcaceae, Genus Ruminococcus, Species — (table row r389) | Abundance: Family Lachnospiraceae, Genus —, Species — (table row r390) | Abundance: Family Ruminococcaceae, Genus Oscillospira, Species — (table row r391) | Abundance: Family Corynebacteriaceae, Genus Corynebacterium, Species stationis (table row r394) | Abundance: Family Ruminococcaceae, Genus Other, Species Other (table row r395) | Abundance: Family Ruminococcaceae, Genus Oscillospira, Species — (table row r398) | Abundance: Family Ruminococcaceae, Genus Ruminococcus, Species — (table row r399) | Abundance: Family [Mogibacteriaceae], Genus —, Species — (table row r400) | Abundance: Family Erysipelotrichaceae, Genus Coprobacillus, Species — (table row r401) | Abundance: Family S24-7, Genus —, Species — (table row r403) | Abundance: Family Coriobacteriaceae, Genus —, Species — (table row r404) | Abundance: Family Coriobacteriaceae, Genus Adlercreutzia, Species — (table row r405) | Abundance: Family Enterococcaceae, Genus Vagococcus, Species — (table row r407) | Abundance: Family Ruminococcaceae, Genus Oscillospira, Species — (table row r414) | Abundance: Family Planococcaceae, Genus Sporosarcina, Species — (table row r415) | Abundance: Family Erysipelotrichaceae, Genus Other, Species Other (table row r417) | Abundance: Family Ruminococcaceae, Genus Ruminococcus, Species — (table row r419) | Abundance: Family Coriobacteriaceae, Genus Adlercreutzia, Species — (table row r423) | Abundance: Family Other, Genus Other, Species Other (table row r424) | Abundance: Family Ruminococcaceae, Genus Other, Species Other (table row r425)
39: Abundance: Aerococcaceae, Aerococcus, — (line r372)
1: Abundance: S24-7, —, — (line r311) | Abundance: Family Erysipelotrichaceae, Genus Clostridium, Species cocleatum (table row r402)
107: Abundance: —, —, — (line r303)
5: Abundance: Christensenellaceae, —, — (line r324) | Abundance: Ruminococcaceae, Other, Other (line r342)
42: Abundance: Other, Other, Other (line r367)
31: Abundance: Ruminococcaceae, Oscillospira, — (line r340)
6: Abundance: Family [Mogibacteriaceae], Genus —, Species — (table row r409)
28: Abundance: Lachnospiraceae, Clostridium, Other (line r351)
26: Abundance: Enterococcaceae, Vagococcus, — (line r332) | Abundance: Family Ruminococcaceae, Genus Oscillospira, Species — (table row r397)
11: Abundance: Bacteroidaceae, Bacteroides, acidifaciens (line r306) | Abundance: Ruminococcaceae, Other, Other (line r308) | Abundance: Rikenellaceae, —, — (line r345) | Abundance: Family S24-7, Genus —, Species — (table row r413)
60: Abundance: Lachnospiraceae, —, — (line r300)
9: Abundance: Ruminococcaceae, Oscillospira, — (line r304) | Abundance: Ruminococcaceae, Oscillospira, — (line r314) | Abundance: Lachnospiraceae, —, — (line r319) | Abundance: Ruminococcaceae, Oscillospira, — (line r336)
2: Abundance: Erysipelotrichaceae, —, — (line r344)
19: Abundance: Lachnospiraceae, —, — (line r316) | Abundance: Erysipelotrichaceae, —, — (line r371)
